Data published in patent US8057806B2 (priority 2000, dated 2011).
“Also recorded” adds a separate entry of the source.

Tested on: M2 mutant viruses
Assay type: cell-based, influenza A virus

Q: With `NC12CC3CC(CC(C3)C1)C2` [amantadine] as the molecule, how does the effect on replication read?
A: The effect on replication was “either not affected or inhibited only slightly; also recorded: Substantial inhibition”.
